How the values were obtained:
Cbl-b [1] = molecular target: T1, Cbl-b (Homo sapiens, UniProt Q13191); test: Cbl-b Degradation Method B (Nano-Glo HiBiT lytic detection); type: cell-based; conditions: Cbl-b-HiBit KI Jurkat Cells, incubated at least 6-24 hours; for DC50: half maximal degradation, read-out: Cbl-b Degredation Method B IC50; for Cbl-b Degredation Method B Dmax (%) / Dmax: maximum degradation observed; for Dmax: read-out: Cbl-b Degredation Method B Dmax (%)
T1 construct: Cbl-b-HiBit KI Jurkat Cells were purchased from Promega; host or cells: Cbl-b-HiBiT knock-in Jurkat cells
Method in brief: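 Cbl-b-HiBiT knock-in Jurkat cells (20,000/well) were treated after ~24 h plating with an 11-point 1:3 series for 6-24 h at 37° C. Remaining Cbl-b measured by Nano-Glo HiBiT lytic luminescence. DC50 and Dmax expressed as % of control.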

Cbl-b [2] = molecular target: T1, Cbl-b; test: Cbl-b Degradation Method A (FACS, anti-Cbl-b antibody staining); type: cell-based; conditions: Cbl-b-HiBit KI Jurkat Cells, incubated at least 20 hours; for DC50: half maximal degradation, read-out: Cbl-b Degredation Method A IC50; for Dmax: Jurkat, read-out: Cbl-b Degredation Method A Dmax (%)
Experimental: Cbl-b Degradation Method A
Cbl-b-HiBit KI Jurkat Cells were purchased from Promega, and cell media consisted of RPMI 1640 with 10% FBS and 1% pen/strep. The cells were counted, measured for viability, and 100 μL of the cell solution was into 96 well flat bottom plates at a ratio of 290,000 cells per 100 μL. Compounds were dissolved in DMSO to make a 10 mM stock solution, which was diluted with cell media. 100 μL of the diluted compound mixture was added to the wells. The plate was incubated for at least 20 hours at 37° C. and 5% CO2. After incubation, the plate was shaken at 700-750 RMP for 15-30 minutes to ensure cells were removed from the wells. The wells were transferred to a 96-well v-bottom plate and spun for 2200 RPM for 3 minutes. The supernatant was removed, cells re-suspended in 100 μL of the fixative, and subsequently incubated at room temperature for 15 minutes. Afterwards, 150 μL of DPBS was added to each well, and the cells were centrifuged at 2500 RPM for 3 minutes. The supernatant was removed and the plate was chilled on ice for 2-3 minutes. While still on the ice, 100 μL of Perm III was added to each well, the wells mixed, and subsequently left on the ice for another 15 minutes. Afterwards, the plate was removed from the ice, 150 μL of DBPS was added to each well, and the cells centrifuged at 2700 RPM for 3 minutes. The supernatant was removed, and an additional 200 μL of was DPBS was added to each well, followed by centrifuging at 2700 RPM for 3 minutes, after which the supernatant was removed. The anti-Cbl-b antibody was diluted 1:200 in 1× Perm Wash buffer and 50 μL of the antibody mixture was added to each well and mixed. After addition, the plate was incubated for 35-45 minutes at room temperature. After incubation, 200 μL of DPBS was added to each wells, and the plate centrifuged at 2700 RPM for 3 minutes, followed by the removal of the supernatant. The washing step was repeated by adding 200 μL of DPBS to each wells followed by centrifuge at 2700 RPM for 3 minutes and removal of the supernatant. The a-Rabbit-AF488 antibody was diluted 1:1000 in Perm Wash buffer, 50 μL of the dilution added to each well, and mixed. After mixing, the plate was incubated for 30 minutes at room temperature in the dark. Subsequently, the supernatant was removed, and 200 μL of DBPS added to the cells, which were then centrifuged at 2900 RPM for 4 minutes. The supernatant was removed, and an additional 95 μL of DBPS was added to the wells and mixed. The cells were then transferred to a round bottom polypropylene plate and analyzed using FACS with the parameters below:
The concentration of an exemplary compound that leads to half maximal degradation (DC50) as well as the maximum degradation observed (Dmax, conventionally expressed as a percentage of control) is shown below in Table 2.

T1 sequence (Q13191 whole entry): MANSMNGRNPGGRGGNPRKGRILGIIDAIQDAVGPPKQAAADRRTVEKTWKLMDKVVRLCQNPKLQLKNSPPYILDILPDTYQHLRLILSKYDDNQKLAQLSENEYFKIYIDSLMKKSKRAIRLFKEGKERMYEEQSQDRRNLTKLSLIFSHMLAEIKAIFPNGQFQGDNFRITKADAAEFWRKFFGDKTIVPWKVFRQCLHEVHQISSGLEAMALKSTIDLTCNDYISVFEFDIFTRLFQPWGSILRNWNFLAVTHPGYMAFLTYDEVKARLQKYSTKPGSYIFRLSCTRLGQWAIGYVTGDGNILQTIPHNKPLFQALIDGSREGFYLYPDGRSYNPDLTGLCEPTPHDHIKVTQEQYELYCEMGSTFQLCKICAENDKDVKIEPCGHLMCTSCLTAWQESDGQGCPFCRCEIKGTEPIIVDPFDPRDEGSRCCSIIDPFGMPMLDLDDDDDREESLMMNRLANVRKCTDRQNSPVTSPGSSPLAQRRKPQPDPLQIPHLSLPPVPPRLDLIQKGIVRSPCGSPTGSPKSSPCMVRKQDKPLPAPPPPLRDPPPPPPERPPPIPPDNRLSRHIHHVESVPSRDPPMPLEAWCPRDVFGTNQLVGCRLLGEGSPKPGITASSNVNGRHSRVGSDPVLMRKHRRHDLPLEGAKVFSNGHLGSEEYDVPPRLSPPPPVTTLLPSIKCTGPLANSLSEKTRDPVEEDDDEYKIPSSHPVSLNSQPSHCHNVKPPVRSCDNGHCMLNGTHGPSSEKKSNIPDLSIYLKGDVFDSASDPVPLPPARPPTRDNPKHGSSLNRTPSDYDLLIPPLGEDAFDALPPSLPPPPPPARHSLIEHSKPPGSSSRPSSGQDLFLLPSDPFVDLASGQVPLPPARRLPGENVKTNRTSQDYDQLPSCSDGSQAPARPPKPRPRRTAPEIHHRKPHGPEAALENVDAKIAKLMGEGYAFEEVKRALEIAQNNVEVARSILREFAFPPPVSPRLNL

C[C@@H]1c2nc(N3CCC(O[C@H]4CC[C@H](CN5CCN(Cc6cc7c(c(C(F)(F)F)c6)CN(c6cccc(C8(Cc9nncn9C)CC(C#N)C8)c6)C7=O)C(C)(C)C5)CC4)CC3)ccc2C(=O)N1C1CCC(=O)NC1=O (single isomer, unassigned) [Example 306, (1r***,3r***)-3-(3-{6-[(2,2-dimethyl-4-{[(1r**,4r**)-4-({1-[(7R*)-6-(2,6-dioxopiperidin-3-yl)-7-methyl-5-oxo-5H,6H,7H-pyrrolo[3,4-b]pyridin-2-yl]piperidin-4-yl}oxy)cyclohexyl]methyl}piperazin-1-yl)methyl]-1-oxo-4-(trifluoromethyl)-2,3-dihydro-1H-isoindol-2-yl}phenyl)-3-[(4-methyl-4H-1,2,4-triazol-3-yl)methyl]cyclobutane-1-carbonitrile]
DC50 (Cbl-b [1]): < 5 nM
Cbl-b Degredation Method B Dmax (%) (Cbl-b [1]): C (C ≤ 35)
DC50 (Cbl-b [2]): 50 to 500 nM
Dmax (Cbl-b [2]; maximum degradation observed): 35 to 70%

C[C@@H]1c2nc(N3CCC(O[C@H]4CC[C@H](CN5CCN(Cc6cc7c(c(C(F)(F)F)c6)CN(c6cccc(C8(Cc9nncn9C)CC(C#N)C8)c6)C7=O)C(C)(C)C5)CC4)CC3)ccc2C(=O)N1C1CCC(=O)NC1=O (single isomer, unassigned) [Example 307, (1r***,3r***)-3-(3-{6-[(2,2-dimethyl-4-{[(1r**,4r**)-4-({1-[(7R*)-6-(2,6-dioxopiperidin-3-yl)-7-methyl-5-oxo-5H,6H,7H-pyrrolo[3,4-b]pyridin-2-yl]piperidin-4-yl}oxy)cyclohexyl]methyl}piperazin-1-yl)methyl]-1-oxo-4-(trifluoromethyl)-2,3-dihydro-1H-isoindol-2-yl}phenyl)-3-[(4-methyl-4H-1,2,4-triazol-3-yl)methyl]cyclobutane-1-carbonitrile]
DC50 (Cbl-b [1]): < 5 nM
Cbl-b Degredation Method B Dmax (%) (Cbl-b [1]): C (C ≤ 35)
DC50 (Cbl-b [2]): 50 to 500 nM
Cbl-b Degredation Method A Dmax (%) (Cbl-b [2]; maximum degradation observed): B (35 < B < 70)

C[C@@H]1c2nc(N3CCC(O[C@H]4CC[C@H](CN5CCN(Cc6cc7c(c(C(F)(F)F)c6)CN(c6cccc(C8(Cc9nncn9C)CC(C#N)C8)c6)C7=O)CC5(C)C)CC4)CC3)ccc2C(=O)N1C1CCC(=O)NC1=O (single isomer, unassigned) [Example 311, (1r***,3r***)-3-(3-{6-[(3,3-dimethyl-4-{[(1r**,4r**)-4-({1-[(7R*)-6-(2,6-dioxopiperidin-3-yl)-7-methyl-5-oxo-5H,6H,7H-pyrrolo[3,4-b]pyridin-2-yl]piperidin-4-yl}oxy)cyclohexyl]methyl}piperazin-1-yl)methyl]-1-oxo-4-(trifluoromethyl)-2,3-dihydro-1H-isoindol-2-yl}phenyl)-3-[(4-methyl-4H-1,2,4-triazol-3-yl)methyl]cyclobutane-1-carbonitrile]
DC50 (Cbl-b [1]): < 5 nM
Cbl-b Degredation Method B Dmax (%) (Cbl-b [1]): C (C ≤ 35)
DC50 (Cbl-b [2]): 50 to 500 nM
Dmax (Cbl-b [2]; maximum degradation observed): 35 to 70%

Cn1cnnc1CC1(c2cccc(N3Cc4c(cc(N5CC6(CCN(CC7CCN(c8ccc9c(c8F)CN(C8CCC(=O)NC8=O)C9=O)CC7)CC6)C5)cc4C(F)(F)F)C3=O)c2)COC1 (stereo not drawn) [Example 1, 3-{4-fluoro-5-[4-({2-[2-(3-{3-[(4-methyl-4H-1,2,4-triazol-3-yl)methyl]oxetan-3-yl}phenyl)-3-oxo-7-(trifluoromethyl)-2,3-dihydro-1H-isoindol-5-yl]-2,7-diazaspiro[3.5]nonan-7-yl}methyl)piperidin-1-yl]-1-oxo-2,3-dihydro-1H-isoindol-2-yl}piperidine-2,6-dione]
DC50 (Cbl-b [1]): < 5 nM
Dmax (Cbl-b [1]): 35 to 70%
DC50 (Cbl-b [2]): < 5 nM
Dmax (Cbl-b [2]; maximum degradation observed): 35 to 70%

Cn1cnnc1CC1(c2cccc(N3Cc4c(cc(CN5CCN(C[C@H]6CC[C@H](OC7CCN(c8ccc9c(c8F)CN(C8CCC(=O)NC8=O)C9=O)CC7)CC6)CC5)cc4C(F)(F)F)C3=O)c2)COC1 (stereo partly drawn) [Example 2, 3-[4-fluoro-1-oxo-5-(4-{[(1r, 4r)-4-[(4-{[2-(3-{3-[(4-methyl-4H-1,2,4-triazol-3-yl)methyl]oxetan-3-yl}phenyl)-3-oxo-7-(trifluoromethyl)-2,3-dihydro-1H-isoindol-5-yl]methyl}piperazin-1-yl)methyl]cyclohexyl]oxy}piperidin-1-yl)-2,3-dihydro-1H-isoindol-2-yl]piperidine-2,6-dione]
DC50 (Cbl-b [1]): < 5 nM
Dmax (Cbl-b [1]): 35 to 70%
DC50 (Cbl-b [2]): < 5 nM
Dmax (Cbl-b [2]; maximum degradation observed): > 70%

Cn1cnnc1CC1(c2cccc(N3Cc4c(cc(N5CC6(CCN(CC7CCN(c8ccc9c(c8Cl)CN(C8CCC(=O)NC8=O)C9=O)CC7)CC6)C5)cc4C(F)(F)F)C3=O)c2)COC1 (stereo not drawn) [Example 4, 3-{4-chloro-5-[4-({2-[2-(3-{3-[(4-methyl-4H-1,2,4-triazol-3-yl)methyl]oxetan-3-yl}phenyl)-3-oxo-7-(trifluoromethyl)-2,3-dihydro-1H-isoindol-5-yl]-2,7-diazaspiro[3.5]nonan-7-yl}methyl)piperidin-1-yl]-1-oxo-2,3-dihydro-1H-isoindol-2-yl}piperidine-2,6-dione]
DC50 (Cbl-b [1]): < 5 nM
Dmax (Cbl-b [1]): 35 to 70%
DC50 (Cbl-b [2]): < 5 nM
Dmax (Cbl-b [2]; maximum degradation observed): 35 to 70%

COc1c(N2CCC(CN3CCC4(CC3)CN(c3cc5c(c(C(F)(F)F)c3)CN(c3cccc(C6(Cc7nncn7C)COC6)c3)C5=O)C4)CC2)ccc2c1CN(C1CCC(=O)NC1=O)C2=O (stereo not drawn) [Example 8, 3-{4-methoxy-5-[4-({2-[2-(3-{3-[(4-methyl-4H-1,2,4-triazol-3-yl)methyl]oxetan-3-yl}phenyl)-3-oxo-7-(trifluoromethyl)-2,3-dihydro-1H-isoindol-5-yl]-2,7-diazaspiro [3.5]nonan-7-yl}methyl)piperidin-1-yl]-1-oxo-2,3-dihydro-1H-isoindol-2-yl}piperidine-2,6-dione]
DC50 (Cbl-b [1]): < 5 nM
Dmax (Cbl-b [1]): 35 to 70%
DC50 (Cbl-b [2]): 5 to 50 nM
Dmax (Cbl-b [2]; maximum degradation observed): > 70%

Cn1cnnc1CC1(c2cccc(N3Cc4c(cc(CN5CC[C@H](CN6CCN(C[C@H]7CC[C@H](OC8CCN(c9ccc%10c(c9F)CN(C9CCC(=O)NC9=O)C%10=O)CC8)CC7)CC6)C5)cc4C(F)(F)F)C3=O)c2)COC1 (stereo partly drawn) [Example 10, 3-[4-fluoro-1-oxo-5-(4-{[(1r, 4r)-4-[(4-{[(3S)-1-{[2-(3-{3-[(4-methyl-4H-1,2,4-triazol-3-yl)methyl]oxetan-3-yl}phenyl)-3-oxo-7-(trifluoromethyl)-2,3-dihydro-1H-isoindol-5-yl]methyl}pyrrolidin-3-yl]methyl}piperazin-1-yl)methyl]cyclohexyl]oxy}piperidin-1-yl)-2,3-dihydro-1H-isoindol-2-yl]piperidine-2,6-dione]
DC50 (Cbl-b [1]): < 5 nM
Dmax (Cbl-b [1]): > 70%
DC50 (Cbl-b [2]): < 5 nM
Dmax (Cbl-b [2]; maximum degradation observed): > 70%

Cn1cnnc1CC1(c2cccc(N3Cc4c(cc(N5CCC(CN6CC7(CCN(c8ccc9c(c8)C(=O)N(C8CCC(=O)NC8=O)C9=O)CC7)C6)CC5)cc4C(F)(F)F)C3=O)c2)COC1 (stereo not drawn) [Example 11, 2-(2,6-dioxo-3-piperidyl)-5-[2-[[1-[2-[3-[3-[(4-methyl-1,2,4-triazol-3-yl)methyl]oxetan-3-yl]phenyl]-3-oxo-7-(trifluoromethyl)isoindolin-5-yl]-4-piperidyl]methyl]-2,7-diazaspiro[3.5]nonan-7-yl]isoindoline-1,3-dione]
DC50 (Cbl-b [1]): 5 to 50 nM
Dmax (Cbl-b [1]): < 35%
DC50 (Cbl-b [2]): 5 to 50 nM
Dmax (Cbl-b [2]; maximum degradation observed): < 35%

Cn1cnnc1CC1(c2cccc(N3Cc4c(cc(N5CCC(COCCOc6ccc7c(c6)C(=O)N(C6CCC(=O)NC6=O)C7=O)CC5)cc4C(F)(F)F)C3=O)c2)COC1 (stereo not drawn) [Example 15, 2-(2,6-dioxo-3-piperidyl)-5-[2-[[1-[2-[3-[3-[(4-methyl-1,2,4-triazol-3-yl)methyl]oxetan-3-yl]phenyl]-3-oxo-7-(trifluoromethyl)isoindolin-5-yl]-4-piperidyl]methoxy]ethoxy]isoindoline-1,3-dione]
DC50 (Cbl-b [1]): > 500 nM
DC50 (Cbl-b [2]): 50 to 500 nM
Dmax (Cbl-b [2]; maximum degradation observed): 35 to 70%

Source: patent publication US20260184710A1, “CASITAS B-LINEAGE LYMPHOMA PROTOONCOGENE B (CBL-B) DEGRADING COMPOUNDS AND ASSOCIATED METHODS OF USE” (Arvinas Operations, Inc., priority 2022, published 2026)
